Data as given in ChEMBL document CHEMBL3400041, “Pyridinic analog of the natural product (-)-spectaline as potential adjuvant for the treatment of central nervous system disorders” (Bioorg Med Chem Lett, 2015).
Active and inactive are the calls of the source. No cut-off for these calls is given here.

Experiments:
Mus musculus [1] = experiment: Antischizophrenic activity in mouse assessed as inhibition of apomorphine-induced climbing behavior at 5 to 10 mg/kg, po; format: functional, organism-based
Mus musculus [2] = experiment: Antidepressant-like activity in mouse assessed as decrease in immobility time at 5 to 10 mg/kg, po by forced swimming test; format: functional, organism-based
Mus musculus [3] = experiment: Toxicity in mouse assessed as rearing behavior at 10 mg/kg, po by spontaneous locomotor activity test; format: organism-based; parameters: dose 10 mg/kg, route oral; settings: in vivo
Mus musculus [4] = experiment: Effect on CNS activity in mouse assessed as reduction in number of groomings at 10 mg/kg, po by spontaneous locomotor activity test; format: functional, organism-based; parameters: dose 10 mg/kg; settings: Central nervous system
Mus musculus [5] = experiment: Effect on CNS activity in mouse assessed as reduction in exploratory behaviour at 10 mg/kg, po by spontaneous locomotor activity test; format: functional, organism-based; parameters: dose 10 mg/kg; settings: Central nervous system
Mus musculus [6] = experiment: Antidepressant-like activity in mouse assessed as decrease in immobility time at 10 mg/kg, po by forced swimming test; format: functional, organism-based; parameters: dose 10 mg/kg
Mus musculus [7] = experiment: Antischizophrenic activity in mouse assessed as inhibition of apomorphine-induced climbing behavior at 5 mg/kg, po; format: functional, organism-based; parameters: dose 5 mg/kg
Mus musculus [8] = experiment: Antischizophrenic activity in mouse assessed as inhibition of apomorphine-induced climbing behavior at 10 mg/kg, po; format: functional, organism-based; parameters: dose 10 mg/kg

Structure (SMILES)	inhibition (Mus musculus [1])	Activity (Mus musculus [2])	Activity (Mus musculus [3])	Activity (Mus musculus [4])	Activity (Mus musculus [5])	Activity (Mus musculus [6])	inhibition (Mus musculus [7])	inhibition (Mus musculus [8])
CCOC(=O)CSc1ccc([N+](=O)[O-])c(SCC(=O)OCC)n1	inactive	inactive	Non-toxic	Active	Active	–	–	–
CCOC(=O)CSc1nc(Cl)ccc1[N+](=O)[O-]	inactive	inactive	Non-toxic	Active	Active	–	–	–
CN(C)CCCN1c2ccccc2CCc2ccccc21	–	–	–	–	–	Active	–	–
CN1CCN(C2=Nc3cc(Cl)ccc3Nc3ccccc32)CC1	–	–	–	–	–	–	Active	–
CCOC(=O)CSc1ncccc1[N+](=O)[O-]	–	Active	Non-toxic	Active	Active	–	–	Active
